Among the data in patent US9227923B2, “Pesticidal carboxamides” (Bayer Intellectual Property GmbH, priority 2009, dated 2016) are insecticidal activity and pest or weed control values, retold here.

For test [1], the system named is Cucurbit Leaf Beetle (Aulacophora Femoralis). Nature of the test: Test against cucurbit leaf beetle (Aulacophora femoralis), leaf dip. The format is in vivo. As to conditions: active compound concentration of 100 ppm; second instar larvae; after 7 days. As to the method:
(§1) Solvent: 3 parts by weight of dimethylformamide
(§2) Emulsifier: 1 part by weight of polyoxyethylene alkyl phenyl ether
Leaves of cucumber were immersed in the test solution at the appropriate concentration, and the leaves were dried in air. The leaves were then put in a plastic cup containing sterilized black soil and five Aulacophora femoralis at second instar larvae were released in the cup. The cups were placed in a temperature-controlled chamber at 25° C. After 7 days, the number of dead larvae was counted, and thus the insecticidal activity was calculated. An insecticidal activity of 100% means that all larvae were killed, whereas an insecticidal activity of 0% means that no larva was killed.

Test [2] concerns Tobacco Cutworm (Spodoptera litura) Larvae. Nature of the test: Test against tobacco cutworm (Spodoptera litura) larvae, leaf dip. The format is in vivo. Particulars: active compound concentration of 100 ppm, third instar larvae, after 7 days; for pest or weed control at 100 ppm: Spodoptera litura, foliar, 168 h, read-out: insecticidal activity. As to the method: as §1, §2
Leaves of sweet potato were immersed in the test solution at the appropriate concentration, and the leaves were dried in air. The leaves were then placed in a petri dish having a diameter of 9 cm, and ten Spodoptera litura at third instar larvae were released therein. The petri dishes were placed in a temperature-controlled chamber at 25° C. After 2 days and 4 days more sweet potato leaves were added. After 7 days, the number of dead larvae was counted to calculate the insecticidal activity. An insecticidal activity of 100% means that all larvae were killed, whereas an insecticidal activity of 0% means that no larva was killed.

`Cc1cc(C(F)(C(F)(F)F)C(F)(F)F)cc(C)c1NC(=O)c1ccc(-n2cncn2)cc1Cl` [Compound 1-5] showed an insecticidal activity in test [1] of 100%.
With `CCc1cc(C(F)(C(F)(F)F)C(F)(F)F)cc(C)c1NC(=O)c1ccc(-n2cncn2)c2ccccc12` [Compound 2-2], the insecticidal activity in test [2] and in test [1] was 100% each time.
Take `CCc1cc(C(F)(C(F)(F)F)C(F)(F)F)cc(C)c1NC(=O)c1ccc(-n2cncn2)nc1` [Compound 4-2]: the insecticidal activity in test [2] and in test [1] was 100% each time.
Turning to `Cc1cc(C(F)(C(F)(F)F)C(F)(F)F)cc(C)c1NC(=O)c1ccc(CNC(=O)CC2CC2)cc1` [Compound 5-8], the insecticidal activity in test [2] and in test [1] was 100% each time.
As for `CC(=O)NCc1ccc(C(=O)Nc2c(C)cc(C(F)(C(F)(F)F)C(F)(F)F)cc2C)c(F)c1` [Compound 5-21], the insecticidal activity in test [2] and in test [1] was 100% each time.
Regarding `CCC(=O)NCc1ccc(C(=O)Nc2c(C)cc(C(F)(C(F)(F)F)C(F)(F)F)cc2C)c(F)c1` [Compound 5-22], the insecticidal activity in test [2] and in test [1] was 100% in each case.
`CCc1cc(C(F)(C(F)(F)F)C(F)(F)F)cc(C)c1NC(=O)c1ccc(CNC(=O)c2ccccc2F)cc1` [Compound 5-34]: the insecticidal activity in test [2] and in test [1] was 100% in each case.
With `CCc1cc(C(F)(C(F)(F)F)C(F)(F)F)cc(C)c1NC(=O)c1ccc(CNC(=O)c2cccc(F)c2)cc1` [Compound 5-35], the insecticidal activity in test [2] and in test [1] was 100% in each case.
On to `CCC(=O)NCc1ccc(C(=O)Nc2c(C)cc(C(F)(C(F)(F)F)C(F)(F)F)cc2CC)c(F)c1` [Compound 5-45], for which the insecticidal activity in test [2] and in test [1] was 100% throughout.
Take `CCc1cc(C(F)(C(F)(F)F)C(F)(F)F)cc(C)c1NC(=O)c1ccc(CNC(=O)CC2CC2)cc1F` [Compound 5-46]: the insecticidal activity in test [2] and in test [1] was 100% throughout.
For the compound `CCc1cc(C(F)(C(F)(F)F)C(F)(F)F)cc(C)c1NC(=O)c1ccc(CNC(C)=O)c(F)c1F` [Compound 5-51], the insecticidal activity in test [2] and in test [1] was 100% each time.
For the compound `CCC(=O)NCc1cc(F)c(C(=O)Nc2c(C)cc(C(F)(C(F)(F)F)C(F)(F)F)cc2CC)cc1F` [Compound 5-59], the insecticidal activity in test [2] and in test [1] was 100% in each case.
In test [1], `CCc1cc(C(F)(C(F)(F)F)C(F)(F)F)cc(C)c1NC(=O)c1ccc(CNC(C)=O)cc1Cl` [Compound 5-65] returned an insecticidal activity of 100%.
As for `CCc1cc(C(F)(C(F)(F)F)C(F)(F)F)cc(C)c1NC(=O)c1ccc(CNC(=O)C2CC2)c(Cl)c1` [Compound 5-79], the insecticidal activity in test [2] and in test [1] was 100% in each case.
`CCc1cc(C(F)(C(F)(F)F)C(F)(F)F)cc(C)c1NC(=O)c1ccc(CNS(C)(=O)=O)c(Br)c1` [Compound 5-96]: the insecticidal activity in test [2] and in test [1] was 100% throughout.
As to `CCC(=O)NCc1ccc(C(=O)Nc2c(C)cc(C(F)(C(F)(F)F)C(F)(F)F)cc2CC)cc1C` [Compound 5-100], the insecticidal activity in test [2] and in test [1] was 100% throughout.
In turn, `CCC(=O)NCc1ccc(C(=O)Nc2c(C)cc(C(F)(C(F)(F)F)C(F)(F)C(F)(F)F)cc2C)cc1` (stereo not shown) [Compound 5-127] came in with an insecticidal activity in test [1] of 100%.
`CCc1cc(C(F)(C(F)(F)F)C(F)(F)C(F)(F)F)cc(C)c1NC(=O)c1ccc(CNC(C)=O)c(F)c1` (stereo not shown) [Compound 5-144]: the insecticidal activity in test [2] and in test [1] was 100% in each case.
As for `CCC(=O)NCc1ccc(C(=O)Nc2c(C)cc(C(F)(C(F)(F)F)C(F)(F)C(F)(F)F)cc2CC)cc1F` (stereo not shown) [Compound 5-145], the insecticidal activity in test [2] and in test [1] was 100% in each case.
On to `CCc1cc(C(F)(C(F)(F)F)C(F)(F)C(F)(F)F)cc(C)c1NC(=O)c1ccc(CNC(=O)C2CC2)c(Cl)c1` (stereo not shown) [Compound 5-152], for which the insecticidal activity in test [2] and in test [1] was 100% in each case.
As for `CCc1cc(C(F)(C(F)(F)F)C(F)(F)C(F)(F)F)cc(C)c1NC(=O)c1ccc(CNC(=O)CC(F)(F)F)c(Br)c1` (stereo not shown) [Compound 5-161], the insecticidal activity in test [2] and in test [1] was 100% each time.
With `CCc1cc(C(F)(C(F)(F)F)C(F)(F)F)cc(C)c1NC(=O)c1ccc(CNC(=O)C[S+](C)[O-])c(Br)c1` (stereo not shown) [Compound 5-177], the insecticidal activity in test [2] and in test [1] was 100% throughout.
As for `CCc1cc(C(F)(C(F)(F)F)C(F)(F)F)cc(C)c1NC(=O)c1ccc(CNC(=O)CS(C)(=O)=O)c(Br)c1` [Compound 5-178], the insecticidal activity in test [2] and in test [1] was 100% throughout.
Regarding `CCc1cc(C(F)(C(F)(F)F)C(F)(F)F)cc(C)c1NC(=O)c1cc(F)c(CNC(=O)c2cccnc2Cl)cc1F` [Compound 5-183], the insecticidal activity in test [2] and in test [1] was 100% throughout.
`CCc1cc(C(F)(C(F)(F)F)C(F)(F)C(F)(F)F)cc(C)c1NC(=O)c1ccc(CNC(=O)CC(F)(F)F)c(I)c1` (stereo not shown) [Compound 5-198]: the insecticidal activity in test [2] and in test [1] was 100% each time.
In the case of `CCc1cc(C(F)(C(F)(F)F)C(F)(F)C(F)(F)F)cc(C)c1NC(=O)c1ccc(CNC(C)=O)c(F)c1F` (stereo not shown) [Compound 5-201], the insecticidal activity in test [2] and in test [1] was 100% in each case.
With `CCC(=O)NCc1ccc(C(=O)Nc2c(C)cc(C(F)(C(F)(F)F)C(F)(F)C(F)(F)F)cc2CC)c(F)c1F` (stereo not shown) [Compound 5-202], the insecticidal activity in test [2] and in test [1] was 100% in each case.
For `CCc1cc(C(F)(C(F)(F)F)C(F)(F)C(F)(F)F)cc(C)c1NC(=O)c1ccc(CNC(=O)C2CC2)c(F)c1F` (stereo not shown) [Compound 5-203], the insecticidal activity in test [2] and in test [1] was 100% throughout.
`CCc1cc(C(F)(C(F)(F)F)C(F)(F)C(F)(F)F)cc(C)c1NC(=O)c1ccc(CNC(=O)CC2CC2)c(F)c1F` (stereo not shown) [Compound 5-204]: the insecticidal activity in test [2] and in test [1] was 100% in each case.
Turning to `CCc1cc(C(F)(C(F)(F)F)C(F)(F)C(F)(F)F)cc(C)c1NC(=O)c1ccc(CNC(=O)CC(F)(F)F)c(F)c1F` (stereo not shown) [Compound 5-205], the insecticidal activity in test [2] and in test [1] was 100% each time.
In the case of `CCc1cc(C(F)(C(F)(F)F)C(F)(F)C(F)(F)F)cc(C)c1NC(=O)c1ccc(CNC(=O)c2cccnc2Cl)c(F)c1F` (stereo not shown) [Compound 5-206], the insecticidal activity in test [2] and in test [1] was 100% throughout.
For `O=C(CC(F)(F)F)NCc1ccc(C(=O)Nc2c(Cl)cc(C(F)(C(F)(F)F)C(F)(F)F)cc2Cl)cc1` [Compound 5-226], the insecticidal activity in test [1] turned out to be 100%.
With `CCc1cc(C(F)(C(F)(F)F)C(F)(F)F)cc(C)c1NC(=O)c1ccc2c(c1)CCC2NC(C)=O` (stereo not shown) [Compound 10-2, 1-acetamide-N-[2-ethyl-4-(1,1,1,2,3,3,3-heptafluoropropan-2-yl)-6-methylphenyl]indane-5-carboxamide], in test [2], the pest or weed control at 100 ppm was 100%.
With `CCc1cc(C(F)(C(F)(F)F)C(F)(F)F)cc(C)c1NC(=O)c1ccc2c(c1)CCCC2NC(=O)CC(F)(F)F` (stereo not shown) [Compound 11-6], the insecticidal activity in test [2] was found to be 100%.
On to `CCc1cc(C(F)(C(F)(F)F)C(F)(F)F)cc(C)c1NC(=O)c1ccc(-n2cncn2)c(CNC(C)=O)c1` [Compound 12-3, 3-(acetamidemethyl)-N-[2-ethyl-4-(1,1,1,2,3,3,3-heptafluoropropan-2-yl)-6-methylphenyl]-4-(1H-1,2,4-triazol-1-yl)benzamide], for which, in test [2], the pest or weed control at 100 ppm stood at 100%.
With `CCC(=O)NCc1cc(C(=O)Nc2c(C)cc(C(F)(C(F)(F)F)C(F)(F)F)cc2CC)ccc1-n1cncn1` [Compound 12-4], the insecticidal activity in test [2] worked out at 100%.
In test [2], `CCc1cc(C(F)(C(F)(F)F)C(F)(F)F)cc(C)c1NC(=O)c1ccc(-n2cncn2)c(CNC(=O)OC)c1` [Compound 12-5] displayed an insecticidal activity of 100%.
Consider `O=C(Nc1c(Cl)cc(C(F)(C(F)(F)F)C(F)(F)F)cc1Cl)c1ccc(I)c(Cl)c1` [Compound A-7, 3-chloro-N-[2,6-dichloro-4-(1,1,1,2,3,3,3-heptafluoropropan-2-yl)phenyl]-4-iodobenzamide], for which, in test [2], the pest or weed control at 100 ppm turned out to be 100%.
In the case of `CCc1cc(C(F)(C(F)(F)F)C(F)(F)F)cc(C)c1NC(=O)c1ccc(C#N)cc1` [Compound I-2], the insecticidal activity in test [2] stood at 100%.
Same read-out and setting: the value for `CCc1cc(C(F)(C(F)(F)F)C(F)(F)F)cc(C)c1NC(=O)c1ccc(C#N)cc1F` [Compound I-3] was 100%; that for `Cc1cc(C#N)ccc1C(=O)Nc1c(Cl)cc(C(F)(C(F)(F)F)C(F)(F)F)cc1Cl` [Compound I-25] was 100%.
Consider `Cc1cc(C(F)(C(F)(F)F)C(F)(F)F)cc(Cl)c1NC(=O)c1ccc(C#N)cc1` [Compound I-28], for which the insecticidal activity in test [2] is given as 100%.
